Reference: paper PMC9080233, “Synthesis and biological evaluation of novel quinolone derivatives dual targeting histone deacetylase and tubulin polymerization as antiproliferative agents” (RSC Advances, 2018)
Read-outs that look alike come from different tables or passages of the source.

Key:
human recombinant HDAC1 = target: T1, human recombinant HDAC1 (Homo sapiens, UniProt Q13547); test: HDAC activity assay (fluorogenic HDAC assay kit), HDAC1; format: biochemical; conditions: for IC50: human recombinant HDAC1, 37 °C, 30 min
T1 construct: purchased BPS Bioscience, CA
T1 sequence (Q13547 whole entry): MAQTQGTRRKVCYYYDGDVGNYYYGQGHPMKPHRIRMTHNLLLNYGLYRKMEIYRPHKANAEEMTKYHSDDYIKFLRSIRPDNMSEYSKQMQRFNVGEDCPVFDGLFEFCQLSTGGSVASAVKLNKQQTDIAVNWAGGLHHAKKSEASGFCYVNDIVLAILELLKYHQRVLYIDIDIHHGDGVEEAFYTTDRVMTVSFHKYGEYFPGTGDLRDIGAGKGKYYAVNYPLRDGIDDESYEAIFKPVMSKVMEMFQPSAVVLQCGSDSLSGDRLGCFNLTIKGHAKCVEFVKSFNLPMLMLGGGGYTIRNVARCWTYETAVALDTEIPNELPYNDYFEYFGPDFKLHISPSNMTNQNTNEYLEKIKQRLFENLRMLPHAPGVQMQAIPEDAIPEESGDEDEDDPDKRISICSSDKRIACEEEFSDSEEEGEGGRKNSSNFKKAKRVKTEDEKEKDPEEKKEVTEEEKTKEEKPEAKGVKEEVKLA
Description: (§1) HDAC activity was measured using fluorogenic HDACs assay kit (BPS Bioscience, CA) according to the manufacturer's protocol. […] Fluorescence values were measured at an excitation of 350 nm and an emission of 440 nm using SpectraMax M2 microplate reader. IC50 values were calculated using Origin software. IC50 values were determined using nonlinear regression analysis.

human recombinant HDAC2 = target: T2, human recombinant HDAC2 (Homo sapiens, UniProt Q92769); test: HDAC activity assay (fluorogenic HDAC assay kit), HDAC2; format: biochemical; conditions: for IC50: human recombinant HDAC2, 37 °C, 30 min
T2 construct: purchased BPS Bioscience, CA
T2 sequence (Q92769 whole entry): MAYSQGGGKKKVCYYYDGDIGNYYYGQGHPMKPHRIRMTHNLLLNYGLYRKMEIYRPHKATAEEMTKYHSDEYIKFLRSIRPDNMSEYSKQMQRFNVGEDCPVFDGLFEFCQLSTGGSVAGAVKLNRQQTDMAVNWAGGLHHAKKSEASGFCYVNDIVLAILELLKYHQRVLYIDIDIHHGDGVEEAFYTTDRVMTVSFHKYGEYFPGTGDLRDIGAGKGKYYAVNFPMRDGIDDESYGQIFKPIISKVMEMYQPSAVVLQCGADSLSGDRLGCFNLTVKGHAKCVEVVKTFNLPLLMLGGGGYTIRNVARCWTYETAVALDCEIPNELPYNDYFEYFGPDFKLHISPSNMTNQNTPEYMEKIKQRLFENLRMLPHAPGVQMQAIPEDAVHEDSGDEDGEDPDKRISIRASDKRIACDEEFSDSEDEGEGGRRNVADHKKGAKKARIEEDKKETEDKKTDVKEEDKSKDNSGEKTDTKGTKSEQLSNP
Description: as §1

human recombinant HDAC6 = target: T3, human recombinant HDAC6 (Homo sapiens, UniProt Q9UBN7); test: HDAC activity assay (fluorogenic HDAC assay kit), HDAC6; format: biochemical; conditions: for IC50: human recombinant HDAC6, 37 °C, 30 min; for Selectivity index HDAC6/1: ratio of IC50 HDAC1 to IC50 HDAC6; for Selectivity index HDAC6/2: ratio of IC50 HDAC2 to IC50 HDAC6;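 for all read-outs here: underlying HDAC activity read as fluorescence, excitation 350 nm and emission 440 nm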
T3 construct: purchased BPS Bioscience, CA
T3 sequence (Q9UBN7 1-1215): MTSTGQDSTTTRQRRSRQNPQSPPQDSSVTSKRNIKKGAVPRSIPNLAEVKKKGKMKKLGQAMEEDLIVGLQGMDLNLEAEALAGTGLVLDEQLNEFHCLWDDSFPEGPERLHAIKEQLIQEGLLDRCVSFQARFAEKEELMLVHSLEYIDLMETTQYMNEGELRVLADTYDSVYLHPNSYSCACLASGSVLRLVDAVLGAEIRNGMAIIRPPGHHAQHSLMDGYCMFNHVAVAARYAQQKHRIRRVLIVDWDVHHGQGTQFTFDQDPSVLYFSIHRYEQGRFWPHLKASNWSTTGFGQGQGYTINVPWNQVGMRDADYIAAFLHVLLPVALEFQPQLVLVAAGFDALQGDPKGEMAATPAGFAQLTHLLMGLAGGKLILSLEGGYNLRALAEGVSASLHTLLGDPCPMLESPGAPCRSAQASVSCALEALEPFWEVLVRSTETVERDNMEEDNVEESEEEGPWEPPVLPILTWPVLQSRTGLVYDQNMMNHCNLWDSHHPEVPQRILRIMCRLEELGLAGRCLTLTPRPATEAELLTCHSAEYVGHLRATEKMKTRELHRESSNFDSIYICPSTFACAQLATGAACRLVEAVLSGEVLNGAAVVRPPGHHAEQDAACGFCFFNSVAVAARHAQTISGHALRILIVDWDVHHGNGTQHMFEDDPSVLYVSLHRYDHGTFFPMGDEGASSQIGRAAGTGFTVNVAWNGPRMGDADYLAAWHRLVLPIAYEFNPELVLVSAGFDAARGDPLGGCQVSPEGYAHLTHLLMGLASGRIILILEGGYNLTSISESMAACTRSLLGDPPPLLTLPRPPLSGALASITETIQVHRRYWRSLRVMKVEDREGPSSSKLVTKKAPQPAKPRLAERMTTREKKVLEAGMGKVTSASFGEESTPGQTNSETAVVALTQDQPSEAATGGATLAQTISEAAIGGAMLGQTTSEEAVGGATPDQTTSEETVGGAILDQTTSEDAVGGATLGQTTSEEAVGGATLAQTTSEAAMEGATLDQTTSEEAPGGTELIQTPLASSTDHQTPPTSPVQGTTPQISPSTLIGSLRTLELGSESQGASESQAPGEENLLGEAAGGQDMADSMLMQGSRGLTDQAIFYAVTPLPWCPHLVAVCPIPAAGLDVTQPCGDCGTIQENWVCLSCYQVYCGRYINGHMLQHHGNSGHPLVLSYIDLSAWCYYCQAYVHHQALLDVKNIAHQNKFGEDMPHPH
Description: as §1

[1] = tested on: human lung adenocarcinoma cells A549; test: Antiproliferative activity, CCK-8 assay, A549; format: cell-based; conditions: CCK-8, 72 hours, mean ± SD
Description: (§2) Antitumor activities in vitro of synthetic compounds were measured using CCK-8 Assay Kit (BPS Bioscience, CA) according to the manufacturer's protocol. […] Control cells were treated with serum free medium. Then CCK-8 solution was added to each well to determine cell viability. The IC50 values were calculated according to the dose-dependent curves (Origin software). IC50 values were determined using nonlinear regression analysis.

liver cancer cells HepG2 = test: Antiproliferative activity, CCK-8 assay, HepG2; format: cell-based; conditions: Homo sapiens, CCK-8, 72 hours, mean ± SD
Description: as §2

[2] = tested on: breast cancer cells MCF-7; test: Antiproliferative activity, CCK-8 assay, MCF-7; format: cell-based; conditions: Homo sapiens, MCF7; CCK-8, 72 hours; mean ± SD
Description: as §2

[3] = tested on: prostate cancer cells PC-3; test: Antiproliferative activity, CCK-8 assay, PC-3; format: cell-based; conditions: Homo sapiens; CCK-8, 72 hours; mean ± SD
Description: as §2

[4] = tested on: human cervical carcinoma cells HeLa; test: Antiproliferative activity, CCK-8 assay, HeLa; format: cell-based; conditions: read-out: IC50 HeLa
Description: Antitumor activities in vitro of synthetic compounds were measured using CCK-8 Assay Kit (BPS Bioscience, CA) according to the manufacturer's protocol. Cells were plated into 96-well plates with appropriate test compounds for 72 hours. Control cells were treated with serum free medium. Then CCK-8 solution was added to each well to determine cell viability. The IC50 values were calculated according to the dose-dependent curves (Origin software). IC50 values were determined using nonlinear regression analysis.

healthy MCF-10A cells = test: Toxicity to healthy cells, CCK-8 assay, MCF-10A; format: cell-based; conditions: for IC50: Homo sapiens, MCF-10A, healthy cells, CCK-8, 72 hours, >100 = not determinable up to highest concentrations tested
Description: as §2

tubulin = test: Tubulin polymerization assay; format: biochemical; conditions: in words
Sequence of tubulin (P02550 whole entry): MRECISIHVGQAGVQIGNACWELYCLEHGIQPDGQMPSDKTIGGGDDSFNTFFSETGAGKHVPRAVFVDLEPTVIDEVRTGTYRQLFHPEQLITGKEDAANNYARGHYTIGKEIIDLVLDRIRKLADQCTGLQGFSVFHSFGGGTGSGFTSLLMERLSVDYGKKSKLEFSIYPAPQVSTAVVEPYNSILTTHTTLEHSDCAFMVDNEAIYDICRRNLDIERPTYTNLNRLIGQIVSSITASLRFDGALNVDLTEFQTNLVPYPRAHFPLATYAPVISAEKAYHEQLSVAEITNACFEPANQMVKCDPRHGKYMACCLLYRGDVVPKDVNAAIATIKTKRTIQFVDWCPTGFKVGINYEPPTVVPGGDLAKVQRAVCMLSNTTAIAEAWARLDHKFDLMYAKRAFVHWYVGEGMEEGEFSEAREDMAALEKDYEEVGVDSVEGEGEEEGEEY
Sequence of tubulin (P02554 whole entry, further chain): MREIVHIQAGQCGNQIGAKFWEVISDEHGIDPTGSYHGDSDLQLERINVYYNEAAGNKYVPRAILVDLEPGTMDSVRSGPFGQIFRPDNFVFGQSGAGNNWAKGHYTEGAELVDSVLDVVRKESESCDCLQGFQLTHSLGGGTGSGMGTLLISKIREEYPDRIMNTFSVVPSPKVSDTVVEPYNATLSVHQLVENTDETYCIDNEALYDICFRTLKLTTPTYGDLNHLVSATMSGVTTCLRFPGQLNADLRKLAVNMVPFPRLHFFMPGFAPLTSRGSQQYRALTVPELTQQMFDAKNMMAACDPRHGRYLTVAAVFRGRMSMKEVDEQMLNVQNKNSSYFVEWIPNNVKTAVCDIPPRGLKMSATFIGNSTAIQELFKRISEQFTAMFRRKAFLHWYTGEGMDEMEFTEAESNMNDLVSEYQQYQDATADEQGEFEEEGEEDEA
Description: Tubulin polymerization assay was performed using a fluorescence-based tubulin polymerization assay Kit (BK011, Cytoskeleton, Inc.) according to the manufacturer's protocol. […] After addition of polymerization buffer and 0.4 mM GTP, the reaction mixtures were transferred to 0 °C cuvettes in a recording spectrophotometer. […] Data from each well was normalized relative to initial readings,[43] and plots of ΔODmax (final−initial values) against compound concentration, expressed relative to vehicle control (DMSO only), were used to calculate IC50 values.[44] IC50 values were determined using nonlinear regression analysis.

[5] = amide group of 9c replaced with ester group

Structure (SMILES) | IC50 (human recombinant HDAC1) [µM] | IC50 (human recombinant HDAC2) [µM] | IC50 (human recombinant HDAC6) [µM] | Selectivity index HDAC6/1 (human recombinant HDAC6) | Selectivity index HDAC6/2 (human recombinant HDAC6) | IC50 [1] [µM] | IC50 (liver cancer cells HepG2) [µM] | IC50 [2] [µM] | IC50 [3] [µM] | IC50 ([4]; CCK-8, 72 hours, mean ± SD) [µM] | IC50 (healthy MCF-10A cells) [µM] | melting point [°C] | fold reduced potency anti-HDAC1 relative to 9c (human recombinant HDAC1; [5]) | fold reduced potency anti-HDAC2 relative to 9c (human recombinant HDAC2; [5]) | fold reduced potency anti-HDAC6 relative to 9c (human recombinant HDAC6; [5]) | tubulin polymerization inhibition compared with reference compound (tubulin) | IC50 ([4]; 72 h) [µM] | toxicity to healthy MCF-10A cells (healthy MCF-10A cells; in words) | toxicity to healthy VERO cells (healthy MCF-10A cells; in words, conclusions)
C[C@H]1COc2c(N3CCN(C)CC3)c(F)cc3c(=O)c(C(=O)OCc4cn(CCCCCCC(=O)O)nn4)cn1c23 [Compound 6b, (S)-7-(4-(((9-fluoro-3-methyl-10-(4-methylpiperazin-1-yl)-7-oxo-3,7-dihydro-2H-[1,4]oxazino[2,3,4-ij]quinoline-6-carbonyl)oxy)methyl)-1H-1,2,3-triazol-1-yl)heptanoic acid] | 5.7 ± 0.71 | 6.2 ± 0.92 | 1.4 ± 0.35 | 4.1 | 4.4 | 10.7 ± 1.08 | 10.5 ± 1.17 | 8.9 ± 0.54 | 12.9 ± 1.25 | 9.7 ± 0.83 | > 100 | 183 to 185 |  |  |  |  |  |  | 
C[C@H]1COc2c(N3CCN(C)CC3)c(F)cc3c(=O)c(C(=O)NCc4cn(CCCCCCCC(=O)NO)nn4)cn1c23 [Compound 9c, (S)-9-Fluoro-N-((1-(8-(hydroxyamino)-8-oxooctyl)-1H-1,2,3-triazol-4-yl)methyl)-3-methyl-10-(4-methylpiperazin-1-yl)-7-oxo-3,7-dihydro-2H-[1,4]oxazino[2,3,4-ij]quinoline-6-carboxamide] | 0.038 ± 0.014 | 0.076 ± 0.022 | 0.041 ± 0.025 | 0.9 | 1.9 | 4.2 ± 0.38 | 3.6 ± 0.55 | 1.1 ± 0.23 | 8.7 ± 0.62 | 3.5 ± 0.24 | > 100 |  |  |  |  |  |  |  | 
C[C@H]1COc2c(N3CCN(C)CC3)c(F)cc3c(=O)c(C(=O)NCc4cn(CCCCCC(=O)O)nn4)cn1c23 [Compound 7a, (S)-6-(4-((9-fluoro-3-methyl-10-(4-methylpiperazin-1-yl)-7-oxo-3,7-dihydro-2H-[1,4]oxazino[2,3,4-ij]quinoline-6-carboxamido)methyl)-1H-1,2,3-triazol-1-yl)hexanoic acid] | 4.6 ± 0.52 | 7.3 ± 0.93 | 1.9 ± 0.47 | 2.4 | 3.8 | 12.8 ± 1.33 | 14.8 ± 1.27 | 9.7 ± 1.04 | 15.8 ± 1.48 | 13.5 ± 1.31 | > 100 | 179 to 182 |  |  |  |  |  |  | 
C[C@H]1COc2c(N3CCN(C)CC3)c(F)cc3c(=O)c(C(=O)OCc4cn(CCCCCC(=O)NO)nn4)cn1c23 [Compound 8a, (S)-(1-(6-(hydroxyamino)-6-oxohexyl)-1H-1,2,3-triazol-4-yl)methyl-9-fluoro-3-methyl-10-(4-methylpiperazin-1-yl)-7-oxo-3,7-dihydro-2H-[1,4]oxazino[2,3,4-ij]quinoline-6-carboxylate] | 0.075 ± 0.031 | 0.134 ± 0.049 | 0.043 ± 0.053 | 1.7 | 3.1 | 8.9 ± 0.72 | 9.8 ± 0.87 | 3.5 ± 0.51 | 12.8 ± 1.42 | 7.7 ± 0.64 | > 100 |  |  |  |  |  |  |  | 
C[C@H]1COc2c(N3CCN(C)CC3)c(F)cc3c(=O)c(C(=O)NCc4cn(CCCCCCCC(=O)O)nn4)cn1c23 [Compound 7c, (S)-8-(4-((9-fluoro-3-methyl-10-(4-methylpiperazin-1-yl)-7-oxo-3,7-dihydro-2H-[1,4]oxazino[2,3,4-ij]quinoline-6-carboxamido)methyl)-1H-1,2,3-triazol-1-yl)octanoic acid] | 3.8 ± 0.46 | 6.9 ± 0.55 | 2.7 ± 0.36 | 1.4 | 2.6 | 11.9 ± 1.06 | 11.3 ± 1.24 | 12.7 ± 1.18 | 13.6 ± 1.29 | 10.6 ± 0.24 | > 100 | 203 to 205 |  |  |  |  |  |  | 
C[C@H]1COc2c(N3CCN(C)CC3)c(F)cc3c(=O)c(C(=O)OCc4cn(CCCCCC(=O)O)nn4)cn1c23 [Compound 6a, (S)-6-(4-(((9-fluoro-3-methyl-10-(4-methylpiperazin-1-yl)-7-oxo-3,7-dihydro-2H-[1,4]oxazino[2,3,4-ij]quinoline-6-carbonyl)oxy)methyl)-1H-1,2,3-triazol-1-yl)hexanoic acid] | 8.2 ± 1.08 | 10.4 ± 1.87 | 2.1 ± 0.68 | 3.9 | 4.9 | 14.2 ± 1.28 | 13.4 ± 1.36 | 10.3 ± 1.12 | 16.5 ± 1.63 | 12.3 ± 1.16 | > 100 | 175 to 178 |  |  |  |  |  |  | 
C[C@H]1COc2c(N3CCN(C)CC3)c(F)cc3c(=O)c(C(=O)OCc4cn(CCCCCCCC(=O)NO)nn4)cn1c23 [Compound 8c, (S)-(1-(8-(hydroxyamino)-8-oxooctyl)-1H-1,2,3-triazol-4-yl)methyl-9-fluoro-3-methyl-10-(4-methylpiperazin-1-yl)-7-oxo-3,7-dihydro-2H-[1,4]oxazino[2,3,4-ij]quinoline-6-carboxylate] | 0.104 ± 0.053 | 0.065 ± 0.016 | 0.052 ± 0.026 | 2.0 | 1.3 | 7.4 ± 0.44 | 5.7 ± 0.49 | 2.3 ± 0.27 | 10.4 ± 1.13 | 6.8 ± 0.56 | > 100 |  | at least 2 fold | at least 2 fold | at least 2 fold |  |  |  | 
C[C@H]1COc2c(N3CCN(C)CC3)c(F)cc3c(=O)c(C(=O)OCc4cn(CCCCCCCC(=O)O)nn4)cn1c23 [Compound 6c, (S)-8-(4-(((9-fluoro-3-methyl-10-(4-methylpiperazin-1-yl)-7-oxo-3,7-dihydro-2H-[1,4]oxazino[2,3,4-ij]quinoline-6-carbonyl)oxy)methyl)-1H-1,2,3-triazol-1-yl)octanoic acid] | 6.9 ± 0.83 | 7.9 ± 0.76 | 4.7 ± 0.51 | 1.5 | 1.7 | 13.6 ± 1.16 | 12.7 ± 1.09 | 10.5 ± 1.22 | 15.8 ± 1.43 | 14.6 ± 1.08 | > 100 | 196 to 199 |  |  |  |  |  |  | 
C[C@H]1COc2c(N3CCN(C)CC3)c(F)cc3c(=O)c(C(=O)NCc4cn(CCCCCC(=O)NO)nn4)cn1c23 [Compound 9a, (S)-9-Fluoro-N-((1-(6-(hydroxyamino)-6-oxohexyl)-1H-1,2,3-triazol-4-yl)methyl)-3-methyl-10-(4-methylpiperazin-1-yl)-7-oxo-3,7-dihydro-2H-[1,4]oxazino[2,3,4-ij]quinoline-6-carboxamide] | 0.073 ± 0.045 |  | 0.049 ± 0.023 | 1.5 | 1.7 | 5.6 ± 0.59 | 6.6 ± 0.78 | 1.1 ± 0.26 | 9.6 ± 1.05 | 5.2 ± 0.82 | > 100 |  |  |  |  | equipotent to reference compound CA-4 |  |  | 
O=C(CCCCCCC(=O)Nc1ccccc1)NO [SAHA, vorinostat, reference compound] |  |  |  |  |  |  |  |  |  |  |  |  |  |  |  |  | 2.9 ± 0.18 | considerable toxicity | some extent inherent toxicity
